Key:
[1] = molecular target: T1, SpeMreB5 (Spiroplasma eriocheiris, UniProt A0A0H3XIQ3); assay: liposome cosedimentation (loss of membrane binding with nucleotide); conditions: 1 mM nucleotide, SpiroLipid liposomes, 200 mM KCl, 1 mM MgCl2, pH 7.5
T1 construct: gene mreB5; full-length SpeMreB5, 6xHis tag, pCold-15b, E. coli BL21(DE3), codon-optimized
T1 sequence (A0A0H3XIQ3 1-350): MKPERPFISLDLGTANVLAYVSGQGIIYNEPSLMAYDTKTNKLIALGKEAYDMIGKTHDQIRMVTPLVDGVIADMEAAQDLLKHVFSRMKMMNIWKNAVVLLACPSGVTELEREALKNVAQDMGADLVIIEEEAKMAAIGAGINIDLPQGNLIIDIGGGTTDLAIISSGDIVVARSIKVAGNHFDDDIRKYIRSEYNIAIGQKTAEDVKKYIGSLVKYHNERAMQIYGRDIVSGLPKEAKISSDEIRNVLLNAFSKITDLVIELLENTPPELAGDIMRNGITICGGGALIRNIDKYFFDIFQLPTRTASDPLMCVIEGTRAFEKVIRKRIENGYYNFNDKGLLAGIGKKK

[2] = molecular target: PrS-SpeMreB1 T164A (Spiroplasma eriocheiris); assay: sedimentation assay (ultracentrifugation); buffer S (20 mM Tris-HCl pH 8.0, 1 M NaCl, 200 mM L-arginine-HCl, 5 mM DTT, 2 mM MgCl2) with 2 mM ATP; 3 h at room temperature; 100,000 rpm, 23 °C, 90 min; critical concentration as x-intercept of the linear fit
[3] = molecular target: T2, PrS-SpeMreB1 (Spiroplasma eriocheiris, UniProt A0A0H3XI00); assay: sedimentation assay of polymerization; type: biochemical; conditions: 2 mM ADP, 1 M NaCl, 2 mM MgCl2, pH 8.0, room temperature; polymerizes with nucleotide, not nucleotide-free
T2 construct: gene mreB1; full-length SpeMreB1; N-terminal 6xHis, two ProteinS (M. xanthus) solubilization tags, factor Xa site; C-terminal 6xHis; tags kept; 560 residues with tags; E. coli BL21(DE3), codon-optimized; monomeric gel filtration fraction
T2 sequence (A0A0H3XI00 1-346): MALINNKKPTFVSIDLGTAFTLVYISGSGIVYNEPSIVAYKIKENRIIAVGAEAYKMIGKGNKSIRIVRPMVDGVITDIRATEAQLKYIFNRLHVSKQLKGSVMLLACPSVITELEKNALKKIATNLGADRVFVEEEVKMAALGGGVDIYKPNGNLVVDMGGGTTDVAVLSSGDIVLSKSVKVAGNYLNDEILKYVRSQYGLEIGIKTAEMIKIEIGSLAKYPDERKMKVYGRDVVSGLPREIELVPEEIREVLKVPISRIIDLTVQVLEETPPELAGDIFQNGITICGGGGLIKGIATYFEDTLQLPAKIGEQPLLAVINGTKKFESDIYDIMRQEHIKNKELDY

[4] = molecular target: PrS-SpeMreB1 WT (monomeric gel-filtration fraction) (Spiroplasma eriocheiris); assay: sedimentation assay (ultracentrifugation); buffer S with 2 mM AMPPNP; 3 h at room temperature; 100,000 rpm, 23 °C, 90 min; no linear fit possible (small pellet amounts)
[5] = molecular target: PrS-SpeMreB1 WT (monomeric gel-filtration fraction) (Spiroplasma eriocheiris); assay: sedimentation assay (ultracentrifugation); buffer S with 2 mM ADP; 3 h at room temperature; 100,000 rpm, 23 °C, 90 min; critical concentration as x-intercept of the linear fit
[6] = molecular target: PrS-SpeMreB1 WT (monomeric gel-filtration fraction) (Spiroplasma eriocheiris); assay: sedimentation assay (ultracentrifugation); buffer S (20 mM Tris-HCl pH 8.0, 1 M NaCl, 200 mM L-arginine-HCl, 5 mM DTT, 2 mM MgCl2) with 2 mM ATP; 3 h at room temperature; 100,000 rpm, 23 °C, 90 min; critical concentration as x-intercept of the linear fit

Nc1ncnc2c1ncn2[C@@H]1O[C@H](COP(=O)(O)OP(=O)(O)NP(=O)(O)O)[C@@H](O)[C@H]1O [AMPPNP]
liposome cosedimentation (loss of membrane binding with nucleotide) [1]: SpeMreB5 did not bind to the liposomes in the presence of nucleotides

PrS-SpeMreB1 T164A (natural protein)
critical concentration (CC) for polymerization [2]: 3 µM

Nc1ncnc2c1ncn2[C@@H]1O[C@H](COP(=O)(O)OP(=O)(O)O)[C@@H](O)[C@H]1O [ADP]
sedimentation assay of polymerization [3]: PrS-SpeMreB1 was less polymerized in the presence of ADP | liposome cosedimentation (loss of membrane binding with nucleotide) [1]: SpeMreB5 did not bind to the liposomes in the presence of nucleotides

PrS-SpeMreB1 WT (monomeric gel-filtration fraction) (natural protein)
critical concentration (CC) for polymerization [4]: > 7 µM | critical concentration (CC) for polymerization [5]: 3.8 µM | critical concentration (CC) for polymerization [6]: 0.41 µM

Nc1ncnc2c1ncn2[C@@H]1O[C@H](COP(=O)(O)OP(=O)(O)OP(=O)(O)O)[C@@H](O)[C@H]1O [ATP]
liposome cosedimentation (loss of membrane binding with nucleotide) [1]: SpeMreB5 did not bind to the liposomes in the presence of nucleotides
